We go through six molecules from US20250144177A1 (Katholieke Universiteit Leuven, priority 2022, published 2025).

Non-standard residues stand in square brackets, D forms with d. Residues, ends and D or L forms follow the SMILES beside them. No end group written: not given here. Orn = NCCC[C@H](N)C(=O)O

Data set [1] concerns the target T1, cathepsin G (Homo sapiens, UniProt P08311).
T1 sequence (P08311 21-244): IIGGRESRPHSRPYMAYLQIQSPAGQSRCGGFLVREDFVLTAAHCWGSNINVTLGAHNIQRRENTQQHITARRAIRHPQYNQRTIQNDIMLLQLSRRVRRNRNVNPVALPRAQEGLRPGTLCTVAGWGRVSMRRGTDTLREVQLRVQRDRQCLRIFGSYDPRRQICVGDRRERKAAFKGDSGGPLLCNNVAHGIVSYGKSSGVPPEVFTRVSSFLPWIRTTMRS
Description: Resistance to proteolytic degradation by cathepsin G (nano-LC/MS). The class given is in vitro ADME. As to conditions: peptide 50 ng/ml, 37° C., cathepsin G 13 mU/litre, pH 7.4. From the text: (§1) The following peptides were compared for resistance against proteolytic degradation: CXCL9 (74-103) with L-amino acids (=L-amino acid peptide); CXCL9 (74-103) with D-amino acids (=D-amino acid peptide) and Acetyl-OOOQONGOOHQOOOQQOVROSQRORQOOTT [SEQ ID NO:2] This is a peptide derived from CXCL9 (74-103) with an acetyl-group on the N-terminus, lysines replaced by ornithine and VL (at positions 88 and 89) replaced by QQ and serine (at position 97) also replaced by ornithine (=ornithine peptide).
(§2) Incubations were performed with peptides at 50 ng/ml and 37° C. for 5 minutes up to 24 hours with trypsin, plasmin or cathepsin G. After the incubation, the reaction was stopped through addition of trifluoroacetic acid (to reach a final pH<4) and purified by nano-LC with on-line detection of eluted peptides by mass spectrometry.
(§3) Sample buffer for incubations with plasmin: 50 mM Tris-HCl 0.5 M NaCl PH 7.4; final plasmin conc. 50 μg/ml Sample buffer for incubations with cathepsin G: 20 mM Tris-HCl+1 mM CaCl2 pH 7.4; final conc. Cathepsin G at 13 mU/litre.

Data set [2] has as its target plasmin (Homo sapiens, UniProt P00747). Description: Resistance to proteolytic degradation by plasmin (nano-LC/MS). The class given is in vitro ADME. As to conditions: peptide 50 ng/ml, 37° C., plasmin 50 μg/ml, pH 7.4.
Description: as §1, §2, §3

Experiment in data set [3]: as above
The class given is in vitro ADME. To be noted: isolated enzyme plasmin; peptide 50 ng/ml, 37° C., plasmin 50 μg/ml, pH 7.4; after 4 h incubation; read-out: degraded with plasmin.
Description: as §1, §2, §3

The test system of data set [4] is cathepsin G. The experiment in a line: 20 mM Tris-HCl+1 mM CaCl2 pH 7.4; final conc. Cathepsin G at 13 mU/litre. As to conditions: 37° C., up to 24 hours.
The test system of data set [5] is plasmin. Description: 50 mM Tris-HCl 0.5 M NaCl PH 7.4; final plasmin conc. 50 μg/ml. To be noted: 37° C., up to 24 hours.
The next data set concerns trypsin. The experiment in a line: 100 mM Tris-HCl pH 8.5; final trypsin (from Sigma) conc. 250 ng/ml. To be noted: 37° C., up to 24 hours.
A short description of data set [6]: Resistance to proteolytic degradation by cathepsin G (nano-LC/MS). To be noted: cathepsin G (isolated protease); peptide 50 ng/ml, 37° C., cathepsin G 13 mU/litre, pH 7.4; after 4 h; read-out: degraded with cathepsin G. Type of data set: in vitro ADME.
Description: as §1, §2, §3

The next data set relates to K. pneumonia. To be noted: preventive treatment / pre-treatment; cited from earlier work.

Sequence of plasmin (Homo sapiens, UniProt P00747) (P00747 581-810 limits assumed, species assumed): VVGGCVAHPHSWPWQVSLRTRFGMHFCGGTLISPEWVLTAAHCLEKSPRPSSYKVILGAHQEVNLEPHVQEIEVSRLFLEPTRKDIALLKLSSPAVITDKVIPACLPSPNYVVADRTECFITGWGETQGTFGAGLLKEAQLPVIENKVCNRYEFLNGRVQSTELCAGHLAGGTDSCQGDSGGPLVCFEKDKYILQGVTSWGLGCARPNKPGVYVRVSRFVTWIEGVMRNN
Sequence of plasmin (Homo sapiens, UniProt P00747) (P00747 97-580 partner limits assumed, species assumed): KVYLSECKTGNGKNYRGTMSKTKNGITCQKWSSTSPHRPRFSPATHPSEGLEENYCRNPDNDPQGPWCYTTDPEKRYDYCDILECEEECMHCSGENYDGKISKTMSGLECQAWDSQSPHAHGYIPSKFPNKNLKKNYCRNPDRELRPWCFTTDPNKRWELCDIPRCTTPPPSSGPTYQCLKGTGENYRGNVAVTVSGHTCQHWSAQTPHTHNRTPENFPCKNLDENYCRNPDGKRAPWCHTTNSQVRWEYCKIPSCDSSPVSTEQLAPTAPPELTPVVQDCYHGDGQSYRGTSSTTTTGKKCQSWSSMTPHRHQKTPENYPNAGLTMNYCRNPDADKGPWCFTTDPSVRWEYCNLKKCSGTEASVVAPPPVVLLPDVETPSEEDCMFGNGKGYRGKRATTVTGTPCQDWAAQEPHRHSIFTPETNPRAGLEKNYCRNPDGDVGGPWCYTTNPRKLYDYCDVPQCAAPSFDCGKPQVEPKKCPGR

Turning to `CC(C)C[C@@H](NC(=O)[C@H](NC(=O)[C@@H](CCCCN)NC(=O)[C@@H](CCCCN)NC(=O)[C@@H](CCCCN)NC(=O)[C@@H](CCC(N)=O)NC(=O)[C@@H](Cc1c[nH]cn1)NC(=O)[C@@H](CCCCN)NC(=O)[C@@H](CCCCN)NC(=O)CNC(=O)[C@@H](CC(N)=O)NC(=O)[C@@H](CCCCN)NC(=O)[C@@H](CCC(N)=O)NC(=O)[C@@H](CCCCN)NC(=O)[C@@H](CCCCN)NC(=O)[C@H](N)CCCCN)C(C)C)C(=O)N[C@H](CCCCN)C(=O)N[C@@H](C(=O)N[C@H](CCCNC(=N)N)C(=O)N[C@H](CCCCN)C(=O)N[C@H](CO)C(=O)N[C@H](CCC(N)=O)C(=O)N[C@H](CCCNC(=N)N)C(=O)N[C@H](CO)C(=O)N[C@H](CCCNC(=N)N)C(=O)N[C@H](CCC(N)=O)C(=O)N[C@H](CCCCN)C(=O)N[C@H](CCCCN)C(=O)N[C@@H](C(=O)N[C@@H](C(=O)O)[C@H](C)O)[C@H](C)O)C(C)C` [D-amino acid peptide] (H-[dK][dK][dK][dQ][dK][dN]G[dK][dK][dH][dQ][dK][dK][dK][dV][dL][dK][dV][dR][dK][dS][dQ][dR][dS][dR][dQ][dK][dK][dT][dT]-OH; N-terminus and C-terminus assumed), the metabolised at 24 h, 50 ng/ml on cathepsin G [1] (cathepsin G (isolated protease), after 24 h) stood at 68%. At cathepsin G [1] (up to 8 h), the “degradation with cathepsin G” value is “less than 5%”. Besides, at plasmin [2] (between 5 min and 8 hours), the resistance to plasmin result is recorded as “resistant”.
Regarding `CC(=O)N[C@@H](CCCN)C(=O)N[C@@H](CCCN)C(=O)N[C@@H](CCCN)C(=O)N[C@@H](CCC(N)=O)C(=O)N[C@@H](CCCN)C(=O)N[C@@H](CC(N)=O)C(=O)NCC(=O)N[C@@H](CCCN)C(=O)N[C@@H](CCCN)C(=O)N[C@@H](Cc1c[nH]cn1)C(=O)N[C@@H](CCC(N)=O)C(=O)N[C@@H](CCCN)C(=O)N[C@@H](CCCN)C(=O)N[C@@H](CCCN)C(=O)N[C@@H](CCC(N)=O)C(=O)N[C@@H](CCC(N)=O)C(=O)N[C@@H](CCCN)C(=O)N[C@H](C(=O)N[C@@H](CCCNC(=N)N)C(=O)N[C@@H](CCCN)C(=O)N[C@@H](CO)C(=O)N[C@@H](CCC(N)=O)C(=O)N[C@@H](CCCNC(=N)N)C(=O)N[C@@H](CCCN)C(=O)N[C@@H](CCCNC(=N)N)C(=O)N[C@@H](CCC(N)=O)C(=O)N[C@@H](CCCN)C(=O)N[C@@H](CCCN)C(=O)N[C@H](C(=O)N[C@H](C(=O)O)[C@@H](C)O)[C@@H](C)O)C(C)C` [Ornithine peptide, Acetyl-OOOQONGOOHQOOOQQOVROSQRORQOOTT] (Ac-[Orn][Orn][Orn]Q[Orn]NG[Orn][Orn]HQ[Orn][Orn][Orn]QQ[Orn]VR[Orn]SQR[Orn]RQ[Orn][Orn]TT-OH; C-terminus assumed), the “cleavage with cathepsin G” value on cathepsin G [1] (5 min up to 4 h incubation) is listed as “no cleavage”. Besides, the “cleavage after arginine with plasmin” value at plasmin [2] (after 5 min) is on record as less than 10%. Besides, the metabolised at 4 h in data set [3] was greater than 70%.
Consider Acetyl-OOOQONGOOHQOOOQQOVROSQRORQOOTT, for which the not cleaved entry with cathepsin G [4] is “no cleavage with cathepsin G after 5 min up to 4 h incubation”.
CXCL9 (74-103) with D-amino acids: the not cleaved entry in the data set with plasmin [5] was “resistant to plasmin at incubations between 5 min and 8 hours”; in the data set on trypsin, “fully resistant to trypsin at incubations from 5 min. up to 4 hours”.
“KKKQKNGKKHQKKKVLKVRKSQRSRQKKTT [CXCL9 (74-103)]”: the metabolised at 4 h, 50 ng/ml in data set [6] is greater than 90%. Moreover, on cathepsin G [1] (up to 2 h), the “stability to cathepsin G” value is reported as “stable”. Besides, the degradation with plasmin result at plasmin [2] (after 5 min) is given as “partial degraded”; at plasmin [2] (after 30 minutes), “fully degradation”.

B1: VAP-1/SSAO: an endothelial bound adhesion molecule with amine oxidase activity involved in neutrophil egress from the microvasculature (protein, UniProt Q16853 1-763, looked up)
Amine oxidase …: MNQKTILVLLILAVITIFALVCVLLVGRGGDGGEPSQLPHCPSVSPSAQPWTHPGQSQLFADLSREELTAVMRFLTQRLGPGLVDAAQARPSDNCVFSVELQLPPKAAALAHLDRGSPPPAREALAIVFFGRQPQPNVSELVVGPLPHPSYMRDVTVERHGGPLPYHRRPVLFQEYLDIDQMIFNRELPQASGLLHHCCFYKHRGRNLVTMTTAPRGLQSGDRATWFGLYYNISGAGFFLHHVGLELLVNHKALDPARWTIQKVFYQGRYYDSLAQLEAQFEAGLVNVVLIPDNGTGGSWSLKSPVPPGPAPPLQFYPQGPRFSVQGSRVASSLWTFSFGLGAFSGPRIFDVRFQGERLVYEISLQEALAIYGGNSPAAMTTRYVDGGFGMGKYTTPLTRGVDCPYLATYVDWHFLLESQAPKTIRDAFCVFEQNQGLPLRRHHSDLYSHYFGGLAETVLVVRSMSTLLNYDYVWDTVFHPSGAIEIRFYATGYISSAFLFGATGKYGNQVSEHTLGTVHTHSAHFKVDLDVAGLENWVWAEDMVFVPMAVPWSPEHQLQRLQVTRKLLEMEEQAAFLVGSATPRYLYLASNHSNKWGHPRGYRIQMLSFAGEPLPQNSSMARGFSWERYQLAVTQRKEEEPSSSSVFNQNDPWAPTVDFSDFINNETIAGKDLVAWVTAGFLHIPHAEDIPNTVTVGNGVGFFLRPYNFFDEDPSFYSADSIYFRGDQDAGACEVNPLACLPQAAACAPDLPAFSHGGFSHN
Turning to B1, in the data set on K. pneumonia, the bacterial load result is on record as “increased” and the “neutrophil recruitment / migration” value is on record as “decreased”.
